Source: patent US4990499A, “Anti-herpes simplex virus activity of 5-alkoxymethyl-2'-deoxycytidimes and their 5-monophosphates” (priority 1989, dated 1991)
pKi: −log10 of the molar value. Entries after “also recorded” stand apart in the source; their conditions may differ.

Legend:
[1] = tested on: HSV-1, KOS; experiment: HSV-1 KOS infectivity in Vero cells prior to washing of drugs; type: cell-based, Herpes simplex virus type 1; conditions: at less than 2120 μM (500 μg/ml)
Experimental: Vero cells were infected with HSV-1, KOS strain and then treated with MMdCyd in various quantities, and also with MMdCyd in various quantities together with a constant amount of H4 dUrd. The virus infectivity was observed and the results are given in Table 5 and are shown graphically in FIG. 3.
^a Virus infectivity was scored using following parameters: rounding
of cells, plaque formation and loss of monolayer structure.
^b Concentration of H4 dUrd used was 530 μM (125 μg/ml).

[2] = tested on: Deoxynucleoside Triphosphate (dNTP) Pools in Uninfected Vero Cells; experiment: Deoxynucleoside triphosphate (dNTP) pools in uninfected (mock-infected) Vero cells; type: cell-based; conditions: Table 7, uninfected Vero cells, treatment 7 hours, ± S.E.
Experimental: Vero cells were treated with MMdCyd, H4 dUrd and MMdCyd+H4 dUrd. The cells were then assayed for the presence of deoxynucleoside triphosphates. Untreated Vero cells were also assayed for the presence of deoxynucleoside triphosphates, to provide a control.
^a Cells were mock infected for one hour. Different treatments were
^b Values are means of at least two assays of triplicate cell
(§1) Vero cells and HSV-infected Vero cells were treated with dGUO and dGUO and H4 dUrd. The cells were then assayed for the presence of deoxynucleoside triphosphates. Untreated Vero cells were also assayed for the presence of deoxynucleoside triphophate to provide a control.
Vero cells were treated with N-methyl-MMdCyd. The cells were then assayed for dNTP pools.

[3] = tested on: Deoxynucleoside Triphosphate (dNTP) Pools in Vero Cells Infected with Herpes Simplex Virus Type 1; experiment: Deoxynucleoside triphosphate (dNTP) pools in HSV-1 infected Vero cells; type: cell-based
Experimental: Example 9 was repeated, except that the Vero cells subjected to the treatment had all been infected with HSV-1 KOS strain prior to the treatment.
^a Cells were infected with 10 PFU/cell of HSV1 KOS strain for one
hour. Treatments were given for seven hours.
^a Cells were infected with 10 PFU/cell of HSV1, KOS strain after
^b H4 dUrd in MEM was added immediately after adsorption and
^c H4 dUrd in MEM was added immediately after adsorption and
as §1
^c Cells were infected with 10 PFU/cell of HSV1 strain KOS for one

[4] = in vitro; conditions: monkey, vero cells
Experimental: The survival and viability of Vero cells grown in the presence of 2'-deoxyguanosine, H4 dUrd and deoxyguanosine+H4 dUrd was determined.

[5] = tested on: HSV-1, KOS; experiment: HSV-1 KOS infectivity (virus yield) in Vero cells after removal of drugs; type: cell-based, Herpes simplex virus type 1; conditions: up to 2120 μM (highest concentration tested)
Experimental: Vero cells were infected with HSV-1, KOS strain and then samples of the infected cells were treated with MMdCyd in various quantities and with MMdCyd in various quantities together with 530 μM of H4 dUrd. Cells were washed twice with 0.4 ml of MEM to remove residual drug, overlaid with growth medium and incubated for 72 h. The virus was harvested by two cycles of freezing and thawing. The culture fluid from each treatment was pooled and assayed for virus yield.
^b H4 dUrd 530 μM (125 μg/ml) was added along with MMdCyd.

[6] = target: T1, HSV-1 DNA Polymerase (Human herpesvirus 1, UniProt P04293); experiment: Kinetic analysis / inhibition of HSV-1 DNA polymerase; type: biochemical
T1 sequence (P04293 whole entry): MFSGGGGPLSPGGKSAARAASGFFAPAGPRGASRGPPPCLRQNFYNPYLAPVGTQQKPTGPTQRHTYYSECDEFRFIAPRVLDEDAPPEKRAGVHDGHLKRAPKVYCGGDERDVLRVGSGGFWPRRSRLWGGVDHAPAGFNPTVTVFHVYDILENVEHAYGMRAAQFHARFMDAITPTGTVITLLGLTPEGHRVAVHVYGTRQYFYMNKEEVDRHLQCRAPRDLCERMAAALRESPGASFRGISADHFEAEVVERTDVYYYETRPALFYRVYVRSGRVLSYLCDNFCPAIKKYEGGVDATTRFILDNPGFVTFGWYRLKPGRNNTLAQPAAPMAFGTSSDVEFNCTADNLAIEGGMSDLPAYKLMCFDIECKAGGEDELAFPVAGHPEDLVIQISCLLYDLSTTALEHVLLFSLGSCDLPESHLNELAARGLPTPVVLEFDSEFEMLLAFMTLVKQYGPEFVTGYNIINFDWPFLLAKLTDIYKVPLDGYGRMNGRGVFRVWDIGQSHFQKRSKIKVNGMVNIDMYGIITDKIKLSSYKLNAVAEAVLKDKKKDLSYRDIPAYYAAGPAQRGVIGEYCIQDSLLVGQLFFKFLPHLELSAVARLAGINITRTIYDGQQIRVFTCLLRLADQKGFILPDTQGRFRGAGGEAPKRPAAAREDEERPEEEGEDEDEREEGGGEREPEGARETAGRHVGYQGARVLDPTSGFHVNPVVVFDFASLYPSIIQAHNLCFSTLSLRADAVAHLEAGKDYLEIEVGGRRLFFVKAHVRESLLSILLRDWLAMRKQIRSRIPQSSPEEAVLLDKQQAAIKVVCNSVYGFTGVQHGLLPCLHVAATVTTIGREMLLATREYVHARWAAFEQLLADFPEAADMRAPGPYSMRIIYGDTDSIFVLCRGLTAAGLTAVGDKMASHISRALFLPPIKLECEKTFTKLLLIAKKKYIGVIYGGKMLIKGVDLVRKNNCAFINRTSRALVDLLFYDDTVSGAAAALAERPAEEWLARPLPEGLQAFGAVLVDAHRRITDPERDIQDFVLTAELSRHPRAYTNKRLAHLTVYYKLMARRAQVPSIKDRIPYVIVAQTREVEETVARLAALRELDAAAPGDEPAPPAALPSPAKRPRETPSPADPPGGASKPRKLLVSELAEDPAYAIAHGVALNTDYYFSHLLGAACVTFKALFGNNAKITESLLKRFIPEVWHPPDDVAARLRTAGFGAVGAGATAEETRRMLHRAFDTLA
Experimental: (§2) The inhibition of HSV-1 and human DNA polymerase alpha by MMdCTP was studied and the results shown graphically in FIG. 16. Assay conditions were specific for each enzyme and each assay was performed in triplicate.

[7] = target: T2, human DNA polymerase alpha (Homo sapiens, UniProt P09884); experiment: In vitro DNA synthesis by human DNA polymerase alpha ([3H]dAMP incorporation); type: biochemical
T2 sequence (P09884 1-1462): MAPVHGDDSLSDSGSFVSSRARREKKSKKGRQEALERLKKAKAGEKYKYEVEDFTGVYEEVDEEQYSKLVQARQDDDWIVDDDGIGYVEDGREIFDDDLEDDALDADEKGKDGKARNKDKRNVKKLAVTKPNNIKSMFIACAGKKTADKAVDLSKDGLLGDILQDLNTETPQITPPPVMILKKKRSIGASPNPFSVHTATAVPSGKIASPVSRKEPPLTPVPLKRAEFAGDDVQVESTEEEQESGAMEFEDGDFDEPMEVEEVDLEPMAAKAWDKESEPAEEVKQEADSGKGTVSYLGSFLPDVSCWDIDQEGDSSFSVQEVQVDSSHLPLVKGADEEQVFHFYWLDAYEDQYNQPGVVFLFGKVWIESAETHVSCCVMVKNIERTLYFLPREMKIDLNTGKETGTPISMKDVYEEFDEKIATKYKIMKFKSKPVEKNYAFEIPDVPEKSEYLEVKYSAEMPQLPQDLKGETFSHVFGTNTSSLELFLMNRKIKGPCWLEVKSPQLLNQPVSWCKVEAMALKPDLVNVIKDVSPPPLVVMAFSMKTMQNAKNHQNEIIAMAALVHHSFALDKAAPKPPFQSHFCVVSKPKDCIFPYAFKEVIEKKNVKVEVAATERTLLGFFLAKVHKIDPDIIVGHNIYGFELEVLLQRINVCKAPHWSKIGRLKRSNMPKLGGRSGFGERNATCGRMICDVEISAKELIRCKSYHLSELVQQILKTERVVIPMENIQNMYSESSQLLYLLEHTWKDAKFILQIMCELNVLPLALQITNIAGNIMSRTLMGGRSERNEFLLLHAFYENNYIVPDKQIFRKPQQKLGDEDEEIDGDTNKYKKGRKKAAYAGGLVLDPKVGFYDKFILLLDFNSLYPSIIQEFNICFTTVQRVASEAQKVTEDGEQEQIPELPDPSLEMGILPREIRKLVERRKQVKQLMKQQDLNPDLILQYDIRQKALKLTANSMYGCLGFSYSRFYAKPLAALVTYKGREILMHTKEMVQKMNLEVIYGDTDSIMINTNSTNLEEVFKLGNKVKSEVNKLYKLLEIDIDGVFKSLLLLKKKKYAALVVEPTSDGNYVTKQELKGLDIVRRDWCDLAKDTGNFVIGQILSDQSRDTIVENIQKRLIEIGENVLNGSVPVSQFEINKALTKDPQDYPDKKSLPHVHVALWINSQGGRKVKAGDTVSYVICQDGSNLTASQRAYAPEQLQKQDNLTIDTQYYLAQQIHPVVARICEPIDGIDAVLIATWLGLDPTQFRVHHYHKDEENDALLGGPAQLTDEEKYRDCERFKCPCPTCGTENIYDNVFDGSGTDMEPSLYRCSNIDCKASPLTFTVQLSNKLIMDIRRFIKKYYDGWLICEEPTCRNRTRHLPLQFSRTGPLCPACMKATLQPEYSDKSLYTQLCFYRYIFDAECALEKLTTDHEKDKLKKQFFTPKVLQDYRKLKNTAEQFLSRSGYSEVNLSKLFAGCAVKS
Experimental: A comparison of in vitro DNA synthesis by viral and cellular DNA polymerases with MMdCTP as an alternative substrate. The results are shown graphically in FIG. 14 and compare HSV-1 DNA polymerase and human DNA polymerase alpha activity.
(§3) The number of pmoles of [^3 H] dAMP incorporated into control samples (`O`MMdCTP) was subtracted from pmoles of test samples. Other nucleotides,dATP, dTTP and dGTP were in excess (10 μm). Each assay was performed in triplicate.
(§4) ^+ unlabeled dNTP concentration (10 μM).
(§5) ^++ 0.2 μM of [^3 H]dATP was used in each assay.

[8] = target: T1, HSV-1 DNA Polymerase; experiment: In vitro DNA synthesis by HSV-1 DNA polymerase ([3H]dAMP incorporation); type: biochemical, Herpes simplex virus type 1
Experimental: The relative in vitro DNA synthesis by HSV-1 DNA Polymerase using dCTP or MMdCTP as the rate limiting substrate was determined. The synthesis was followed by assaying an incorporation of tritium labelled dAMP.
+ unlabelled dNTP concentration 10 μM
++ Radio labelled [^3 H]dAMP conc 0.2 μM
*One hundred percent activity represents 27355 cpm of [^3 H]dAMP
as §3, §4, §5

[9] = target: E. coli DNA Polymerase 1 (Escherichia coli, UniProt P00582); experiment: In vitro DNA synthesis by E. coli DNA polymerase 1 ([3H]dAMP incorporation); type: biochemical
Sequence of E. coli DNA Polymerase 1 (P00582 whole entry): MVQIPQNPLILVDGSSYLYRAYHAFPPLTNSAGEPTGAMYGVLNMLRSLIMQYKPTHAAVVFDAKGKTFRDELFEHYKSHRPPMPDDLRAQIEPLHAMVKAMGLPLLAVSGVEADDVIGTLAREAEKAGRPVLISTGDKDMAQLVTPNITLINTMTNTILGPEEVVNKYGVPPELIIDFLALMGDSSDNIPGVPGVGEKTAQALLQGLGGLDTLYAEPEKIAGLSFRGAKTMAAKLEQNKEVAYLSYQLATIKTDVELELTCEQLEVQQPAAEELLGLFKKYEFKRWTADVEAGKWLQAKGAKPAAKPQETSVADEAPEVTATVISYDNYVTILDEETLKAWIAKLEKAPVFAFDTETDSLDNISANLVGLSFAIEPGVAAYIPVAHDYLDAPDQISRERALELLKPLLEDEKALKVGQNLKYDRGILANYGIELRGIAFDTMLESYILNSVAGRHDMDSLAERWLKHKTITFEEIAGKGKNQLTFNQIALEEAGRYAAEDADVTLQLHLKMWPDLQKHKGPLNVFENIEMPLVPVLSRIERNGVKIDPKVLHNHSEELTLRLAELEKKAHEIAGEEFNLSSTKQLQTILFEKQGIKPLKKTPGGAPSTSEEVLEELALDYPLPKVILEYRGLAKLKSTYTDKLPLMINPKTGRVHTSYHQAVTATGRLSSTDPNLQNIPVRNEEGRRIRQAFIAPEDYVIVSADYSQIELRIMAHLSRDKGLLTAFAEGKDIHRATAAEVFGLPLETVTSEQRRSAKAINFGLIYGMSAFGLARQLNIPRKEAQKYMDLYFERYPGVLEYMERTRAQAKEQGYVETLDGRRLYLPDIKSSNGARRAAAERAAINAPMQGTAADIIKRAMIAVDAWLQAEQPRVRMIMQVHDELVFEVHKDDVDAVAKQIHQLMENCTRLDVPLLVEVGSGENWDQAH
Experimental: ^a Enzymatic assays were carried out with 1 unit of Sigma E. coli DNA
Polymerase 1. dTTP, dGTP and [^3 H] dATP were non limiting (5 μM).
^b Values obtained are net after subtracting "0" samples which did no
^c Amount of NMeMMdCTP used with each concentration of dCTP was 0.625

[10] = tested on: Nc1ccn([C@H]2C[C@H](O)[C@@H](COP(=O)(O)OP(=O)(O)OP(=O)(O)O)O2)c(=O)n1; experiment: Kinetic analysis / inhibition of HSV-1 DNA polymerase; type: biochemical; conditions: other: dCTP
Experimental: as §2

[11] = Table 8, HSV-1 KOS infected Vero cells, 10 PFU/cell, treatment 7 hours, ± S.E.
[12] = Table 9, HSV-1 KOS infected, H4 dUrd pre-incubated 2 hours then removed, fresh MEM or MMdCyd

## O=C1NC(O)CCN1[C@H]1C[C@H](O)[C@@H](CO)O1 (stereo partly shown) [H4 dUrd, tetrahydro-2'-deoxyuridine]
[1]
  antiviral activity of H4 dUrd alone: did not exhibit antiviral activity
[2]
  dATP pool: 17.6 ± 1.28 .rho.moles/10^6 cells
  dCTP pool: 30.8 ± 1.20 .rho.moles/10^6 cells
  dGTP pool: 32 ± 1.3 .rho.moles/10^6 cells
  dTTP pool: 27.5 ± 1.25 .rho.moles/10^6 cells
[3]; [11]
  dATP pool: 94.7 ± 2.06 .rho.moles/10^6 cells
  dCTP pool: 326 ± 12.6 .rho.moles/10^6 cells
  dGTP pool: 101.3 ± 2.28 .rho.moles/10^6 cells
  dTTP pool: 0.5 ± 0.34 .rho.moles/10^6 cells
[3]; [12]
  dATP pool: 119.4 ± 3.1 .rho.moles/10^6 cells
  dCTP pool: 312 ± 10.1 .rho.moles/10^6 cells
  dGTP pool: 141 ± 2.6 .rho.moles/10^6 cells
  dTTP pool: 2 ± 0.41 .rho.moles/10^6 cells
[4]
  viability at 1000 µM: 100%
[5]
  antiviral activity of H4 dUrd: did not exhibit antiviral activity; also recorded: no antiviral activity

## COCc1cn([C@H]2C[C@H](O)[C@@H](COP(=O)(O)OP(=O)(O)OP(=O)(O)O)O2)c(=O)nc1N [MMdCTP, 5-methoxymethyl-2'-deoxycytidine triphosphate]
[6]
  pKi: 6.42
[6]; FIG. 16, HSV-1 compared with human DNA polymerase alpha
  inhibition of HSV-1 versus human DNA polymerase alpha: clear difference in effect
[6]; Km of dCTP / Ki of MMdCTP
  Km/Ki: 0.4
[7]; human DNA polymerase alpha, FIG. 14
  utilization as alternative substrate ([^3 H] dAMP incorporation): little used
[8]; HSV-1 DNA polymerase, FIG. 14
  utilization as alternative substrate ([^3 H] dAMP incorporation): readily utilized
[8]; HSV-1 induced DNA polymerase
  preference as substrate versus dCTP: preferred as a substrate to dCTP

## Nc1ccn([C@H]2C[C@H](O)[C@@H](COP(=O)(O)OP(=O)(O)OP(=O)(O)O)O2)c(=O)n1 [dCTP, 2'-deoxycytidine triphosphate, reference compound]
[9]; nucleotide 0.039 μM (mixture: dCTP at this concentration + N-MeMMdCTP 0.625 μM)
  cpm [^3 H]dAMP incorporated: 35 cpm
[9]; nucleotide 0.078 μM (mixture: dCTP at this concentration + N-MeMMdCTP 0.625 μM)
  cpm [^3 H]dAMP incorporated: 118 cpm
[9]; nucleotide 0.156 μM (mixture: dCTP at this concentration + N-MeMMdCTP 0.625 μM)
  cpm [^3 H]dAMP incorporated: 216 cpm
[9]; nucleotide 0.312 μM (mixture: dCTP at this concentration + N-MeMMdCTP 0.625 μM)
  cpm [^3 H]dAMP incorporated: 527 cpm
[9]; nucleotide 0.625 μM (mixture: dCTP at this concentration + N-MeMMdCTP 0.625 μM)
  cpm [^3 H]dAMP incorporated: 1171 cpm
[9]; nucleotide 1.25 μM (mixture: dCTP at this concentration + N-MeMMdCTP 0.625 μM)
  cpm [^3 H]dAMP incorporated: 1603 cpm
[9]; nucleotide 2.50 μM (mixture: dCTP at this concentration + N-MeMMdCTP 0.625 μM)
  cpm [^3 H]dAMP incorporated: 1554 cpm
[9]; nucleotide 5.0 μM (mixture: dCTP at this concentration + N-MeMMdCTP 0.625 μM)
  cpm [^3 H]dAMP incorporated: 2032 cpm
[7]; 10 μM dCTP, Human DNA polymerase
  [^3 H]dAMP incorporation representing 100% activity: 4059 cpm
[7]; Human α-DNA polymerase
  incorporation into DNA / substrate: excellent substrate for DNA synthesis
[8]; 10 μM dCTP, HSV-1 DNA polymerase
  [^3 H]dAMP incorporation representing 100% activity: 27355 cpm
[8]; HSV-1 DNA polymerase
  incorporation into DNA / substrate: excellent substrate for DNA synthesis

## HSV-1 DNA Polymerase (Human alphaherpesvirus 1 strain 17)
[10]
  Km: 0.15 µM
